Molecules are shown by their SMILES.

Data set [1] has as its target T1, Solute carrier family 22 member 6 (Rattus norvegicus, UniProt O35956).
T1 sequence (O35956 whole entry): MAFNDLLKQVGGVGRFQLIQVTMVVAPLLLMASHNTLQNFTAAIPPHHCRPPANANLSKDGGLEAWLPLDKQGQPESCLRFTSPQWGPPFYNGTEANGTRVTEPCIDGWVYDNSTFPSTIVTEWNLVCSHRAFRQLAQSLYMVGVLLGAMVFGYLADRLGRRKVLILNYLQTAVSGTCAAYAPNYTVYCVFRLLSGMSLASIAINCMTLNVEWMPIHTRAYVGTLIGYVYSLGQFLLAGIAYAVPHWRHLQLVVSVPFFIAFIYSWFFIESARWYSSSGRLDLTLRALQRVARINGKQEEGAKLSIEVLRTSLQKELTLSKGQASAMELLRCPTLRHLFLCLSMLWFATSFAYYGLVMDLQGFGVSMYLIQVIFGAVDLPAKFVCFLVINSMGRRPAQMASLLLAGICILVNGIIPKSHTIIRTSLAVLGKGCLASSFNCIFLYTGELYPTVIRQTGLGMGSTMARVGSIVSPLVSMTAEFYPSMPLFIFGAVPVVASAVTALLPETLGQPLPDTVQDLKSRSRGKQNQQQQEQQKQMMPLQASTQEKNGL
The data set is described as follows: TP_TRANSPORTER: Western in vivo, SD rat, kidney. In kind it is functional, organism-based, Sprague-Dawley.

The target of data set [2] is T1, Solute carrier family 22 member 6. Briefly: TP_TRANSPORTER: quantitative PCR in vivo, SD rat, kidney. In kind it is functional, organism-based, Sprague-Dawley.

`NS(=O)(=O)c1cc(C(=O)O)c(NCc2ccco2)cc1Cl` [FUROSEMIDE]: the Activity result in data set [1] and in data set [2] was “inducer []” in each case.

For the origin of these results see ChEMBL document CHEMBL2074143, “Up-regulation of organic anion transporter 1 protein is induced by chronic furosemide or hydrochlorothiazide infusion in rat kidney” (Nephrol Dial Transplant, 2003).
